This note sets out measurements from ChEMBL document CHEMBL1135131, “Nicotinanilides as inhibitors of neutrophil chemotaxis” (Bioorg Med Chem Lett, 2002).

Test [1] has as its target T1, Interleukin-8 receptors, CXCR1/CXCR2 (Homo sapiens, UniProt P25025+P25024).
T1 sequence (P25025 whole entry): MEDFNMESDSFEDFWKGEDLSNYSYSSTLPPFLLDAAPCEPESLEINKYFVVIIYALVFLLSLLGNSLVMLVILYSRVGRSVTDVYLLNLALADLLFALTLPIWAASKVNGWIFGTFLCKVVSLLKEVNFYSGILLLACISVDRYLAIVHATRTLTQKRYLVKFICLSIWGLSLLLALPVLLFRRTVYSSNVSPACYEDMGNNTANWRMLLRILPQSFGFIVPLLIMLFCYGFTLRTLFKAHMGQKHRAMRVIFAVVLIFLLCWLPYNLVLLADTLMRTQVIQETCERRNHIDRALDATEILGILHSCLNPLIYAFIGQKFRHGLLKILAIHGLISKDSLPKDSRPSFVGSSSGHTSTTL
T1 sequence (P25024 whole entry): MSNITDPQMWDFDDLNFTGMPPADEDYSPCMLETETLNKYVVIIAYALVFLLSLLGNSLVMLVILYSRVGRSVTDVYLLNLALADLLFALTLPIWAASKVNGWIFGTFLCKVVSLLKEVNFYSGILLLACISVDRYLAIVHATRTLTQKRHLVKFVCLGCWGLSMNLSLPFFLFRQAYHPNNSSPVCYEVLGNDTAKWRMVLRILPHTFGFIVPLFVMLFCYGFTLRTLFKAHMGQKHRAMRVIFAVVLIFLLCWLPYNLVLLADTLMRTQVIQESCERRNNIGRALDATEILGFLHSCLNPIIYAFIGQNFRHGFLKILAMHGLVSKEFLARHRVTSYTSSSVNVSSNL
The test is described as follows: Inhibition against GRO-alpha driven human neutrophil chemotaxis. In kind it is functional.

Test [2] is described as follows: Inhibition against formyl-methionyl-leucyl (FMLP) phenylalanine driven human neutrophil chemotaxis. The class given is functional.
The target of test [3] is T2, C-X-C chemokine receptor type 2 (Homo sapiens, UniProt P25025).
T2 sequence (P25025 whole entry): T1 sequence (P25025 whole entry)
The test is described as follows: Displacement of [125I]IL-8 from CHO cell membranes expressing human […] chemokine receptor 2 (CXCR2 filter mat binding assay). On the technique in general: Loss of bound radioactivity is the signal in a displacement assay; it reports binding, not function.

Test [4] concerns the target T2, C-X-C chemokine receptor type 2. The test is described as follows: Displacement of [125I]IL-8 from CHO cell membranes expressing human […] chemokine receptor 2.

SMILES strings stand for the structures. pIC50: −log10 of the molar value. Some results are limits rather than exact numbers.

As usually defined, the IC50 is the concentration at which inhibition is half-maximal. A lower IC50 goes with greater potency. `O=C(O)CCSc1ccc(C(=O)Nc2ccc(F)cc2)cn1` had an IC50 in test [1] above 20000 nM. By pIC50 is commonly meant −log10 of the IC50, conventionally taken in molar units. Low readings indicate a large IC50, high ones a small IC50. `O=C(COc1ccc(C(=O)Nc2ccc(F)cc2)cn1)Nc1cccnc1` displayed an IC50 in test [1] of 220 nM. The molecule also had a pIC50 in test [2] below 4.40.

Take `COC(=O)COc1ccc(NC(=O)c2ccc(F)cc2)cn1`: in test [1], the IC50 is given as 360 nM. For `O=C(COc1ccc(C(=O)Nc2ccc(F)cc2)cn1)OC1CCCCC1`, in test [1], the IC50 was determined as 220 nM. This molecule had a pIC50 in test [2] below 4.40. For `COC(=O)CCSc1ccc(C(=O)Nc2ccc(F)cc2)cn1`, the IC50 in test [1] turned out to be 760 nM. The molecule further showed a negative-log IC50 (pIC50) in test [2] below 4.40. The corresponding values for `O=C(COc1ccc(C(=O)Nc2ccc(F)cc2)cn1)OCc1ccccc1` are 94 nM and below 4.40. With `O=C(COc1ccc(C(=O)Nc2ccc(F)cc2)cn1)NC1CCCC1`, in test [1], the IC50 was above 20000 nM. Take `O=C(CSc1ccc(C(=O)Nc2ccc(F)cc2)cn1)OCc1cccc(F)c1`: the half-inhibitory concentration (IC50) in test [1] came out at 43 nM. Regarding `COC(=O)COc1ccc(C(=O)Nc2ccc(F)cc2)cn1`, in test [1], the IC50 was 110 nM. In test [2], the pIC50 is below 4.40.

In test [1], `CNC(=O)COc1ccc(C(=O)Nc2ccc(F)cc2)cn1` yielded an IC50 above 20000 nM. Consider `CC(C)CCOC(=O)COc1ccc(C(=O)Nc2ccc(F)cc2)cn1`, for which the IC50 in test [1] worked out at 200 nM. Besides, the pIC50 in test [2] is below 4.40. In the case of `CCCOC(=O)CSc1ccc(C(=O)Nc2ccc(F)cc2)cn1`, the IC50 in test [1] is 46 nM. This molecule gave a pIC50 in test [2] below 4.40. The corresponding values for `O=C(COc1ccc(C(=O)Nc2ccc(F)cc2)cn1)OCc1cccc(F)c1` are 50 nM and below 4.40. Regarding `CCOC(=O)COc1ccc(C(=O)Nc2ccc(F)cc2)cn1`, the IC50 in test [1] stood at 160 nM. The molecule further gave a pIC50 in test [2] below 4.40.

In test [3], `O=C(O)CSc1ccc(C(=O)Nc2ccc(F)cc2)cn1` had a negative-log IC50 (pIC50) of 5.92. Besides, in test [1], the IC50 is above 20000 nM.

As to `O=C(COc1ccc(C(=O)Nc2ccc(F)cc2)cn1)Nc1ccccc1`, the IC50 in test [1] worked out at 1000 nM. The molecule further gave a pIC50 in test [2] below 4.40. The molecule `O=C(O)CCCSc1ccc(C(=O)Nc2ccc(F)cc2)cn1` displayed an IC50 in test [1] of 5100 nM.

`O=C(COc1ccc(C(=O)Nc2ccc(F)cc2)cn1)Oc1ccccc1` had an IC50 in test [1] of 410 nM. In the case of `CN(C(=O)COc1ccc(C(=O)Nc2ccc(F)cc2)cn1)c1ccccc1`, in test [1], the IC50 was found to be 12500 nM. Also, in test [2], the pIC50 is below 4.40. Consider `O=C(COc1ccc(C(=O)Nc2ccc(F)cc2)cn1)Nc1cccc(Br)c1`, for which, in test [1], the IC50 came to 2700 nM. Also, in test [2], the negative-log IC50 (pIC50) was below 4.40. Take `O=C(COc1ccc(C(=O)Nc2ccc(F)cc2)cn1)OCCCCC1CCCCC1`: the IC50 in test [1] came out at 680 nM. Also, the pIC50 in test [2] is below 4.40.

With `COC(=O)CSc1ccc(C(=O)Nc2ccc(F)cc2)cn1`, the pIC50 in test [4] was 7.49. This molecule also registered an IC50 in test [1] of 42 nM.

`O=C(CSc1ccc(C(=O)Nc2ccc(F)cc2)cn1)OCc1ccc(Br)cc1`: in test [1], the IC50 came to 83 nM.
